{"source": "ChEMBL document CHEMBL1132082", "about": "“Nonsteroidal androgen receptor agonists based on 4-(trifluoromethyl)-2H-pyrano[3,2-g]quinolin-2-one” (Bioorg Med Chem Lett, 1999)", "key": {"Glucocorticoid receptor": {"biological_target": "T1, Glucocorticoid receptor (Homo sapiens, UniProt P04150)", "T1 sequence (P04150 whole entry)": "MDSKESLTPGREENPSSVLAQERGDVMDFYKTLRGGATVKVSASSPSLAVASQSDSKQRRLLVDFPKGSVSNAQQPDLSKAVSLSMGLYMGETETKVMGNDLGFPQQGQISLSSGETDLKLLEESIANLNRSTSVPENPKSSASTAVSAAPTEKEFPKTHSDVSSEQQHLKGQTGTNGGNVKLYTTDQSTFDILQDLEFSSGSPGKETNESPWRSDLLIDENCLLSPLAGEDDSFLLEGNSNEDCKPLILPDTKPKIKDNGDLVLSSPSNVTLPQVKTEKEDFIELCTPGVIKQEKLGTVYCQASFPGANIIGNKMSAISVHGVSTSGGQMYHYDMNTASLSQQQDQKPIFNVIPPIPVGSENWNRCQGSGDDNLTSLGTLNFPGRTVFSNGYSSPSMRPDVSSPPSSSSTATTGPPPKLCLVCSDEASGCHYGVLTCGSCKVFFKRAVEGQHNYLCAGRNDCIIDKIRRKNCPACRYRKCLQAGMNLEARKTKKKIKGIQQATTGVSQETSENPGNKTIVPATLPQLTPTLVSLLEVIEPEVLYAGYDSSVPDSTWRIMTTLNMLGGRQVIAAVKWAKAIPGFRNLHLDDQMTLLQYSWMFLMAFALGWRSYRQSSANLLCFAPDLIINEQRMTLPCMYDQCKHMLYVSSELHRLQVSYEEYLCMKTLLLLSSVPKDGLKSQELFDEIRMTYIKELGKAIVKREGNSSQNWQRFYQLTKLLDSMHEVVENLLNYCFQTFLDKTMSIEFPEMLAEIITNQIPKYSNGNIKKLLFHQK", "test": "In vitro antagonistic activity against human glucocorticoid receptor (hGR); not active", "type": "functional"}, "Estrogen receptor": {"biological_target": "Estrogen receptor (Homo sapiens, UniProt Q92731+P03372)", "test": "In vitro antagonistic activity against human estrogen receptor (hER); not active", "type": "functional"}, "[1]": {"biological_target": "T2, Progesterone receptor (Homo sapiens) (UniProt P06401)", "T2 sequence (whole entry)": "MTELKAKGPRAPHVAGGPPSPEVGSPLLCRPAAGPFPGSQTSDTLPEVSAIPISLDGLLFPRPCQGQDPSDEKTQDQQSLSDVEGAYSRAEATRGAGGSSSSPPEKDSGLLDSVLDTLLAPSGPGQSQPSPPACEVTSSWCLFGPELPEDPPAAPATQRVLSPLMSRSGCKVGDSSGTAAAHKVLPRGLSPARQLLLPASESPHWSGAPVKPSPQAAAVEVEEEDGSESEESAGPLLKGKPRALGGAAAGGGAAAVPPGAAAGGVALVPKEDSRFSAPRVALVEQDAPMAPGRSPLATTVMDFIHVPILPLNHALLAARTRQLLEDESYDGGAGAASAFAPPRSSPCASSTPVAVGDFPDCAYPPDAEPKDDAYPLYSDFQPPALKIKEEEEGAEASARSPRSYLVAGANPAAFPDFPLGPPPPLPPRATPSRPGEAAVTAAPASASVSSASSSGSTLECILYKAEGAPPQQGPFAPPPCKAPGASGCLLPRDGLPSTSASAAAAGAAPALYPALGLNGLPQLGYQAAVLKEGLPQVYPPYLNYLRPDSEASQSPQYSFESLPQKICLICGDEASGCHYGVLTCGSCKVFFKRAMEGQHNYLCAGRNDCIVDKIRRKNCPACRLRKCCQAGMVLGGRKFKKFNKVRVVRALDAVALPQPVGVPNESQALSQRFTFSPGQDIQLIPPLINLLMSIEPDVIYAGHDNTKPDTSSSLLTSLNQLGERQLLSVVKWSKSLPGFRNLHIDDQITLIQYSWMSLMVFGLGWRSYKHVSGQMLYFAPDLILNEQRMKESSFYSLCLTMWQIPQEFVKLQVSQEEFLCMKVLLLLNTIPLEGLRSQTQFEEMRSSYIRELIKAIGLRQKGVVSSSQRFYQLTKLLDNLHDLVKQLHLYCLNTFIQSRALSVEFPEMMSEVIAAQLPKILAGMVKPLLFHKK", "test": "In vitro antagonistic activity against human progesterone receptor (hPR)", "type": "functional"}, "Androgen receptor [2]": {"biological_target": "T3, Androgen receptor (Homo sapiens, UniProt P10275)", "T3 sequence (P10275 whole entry)": "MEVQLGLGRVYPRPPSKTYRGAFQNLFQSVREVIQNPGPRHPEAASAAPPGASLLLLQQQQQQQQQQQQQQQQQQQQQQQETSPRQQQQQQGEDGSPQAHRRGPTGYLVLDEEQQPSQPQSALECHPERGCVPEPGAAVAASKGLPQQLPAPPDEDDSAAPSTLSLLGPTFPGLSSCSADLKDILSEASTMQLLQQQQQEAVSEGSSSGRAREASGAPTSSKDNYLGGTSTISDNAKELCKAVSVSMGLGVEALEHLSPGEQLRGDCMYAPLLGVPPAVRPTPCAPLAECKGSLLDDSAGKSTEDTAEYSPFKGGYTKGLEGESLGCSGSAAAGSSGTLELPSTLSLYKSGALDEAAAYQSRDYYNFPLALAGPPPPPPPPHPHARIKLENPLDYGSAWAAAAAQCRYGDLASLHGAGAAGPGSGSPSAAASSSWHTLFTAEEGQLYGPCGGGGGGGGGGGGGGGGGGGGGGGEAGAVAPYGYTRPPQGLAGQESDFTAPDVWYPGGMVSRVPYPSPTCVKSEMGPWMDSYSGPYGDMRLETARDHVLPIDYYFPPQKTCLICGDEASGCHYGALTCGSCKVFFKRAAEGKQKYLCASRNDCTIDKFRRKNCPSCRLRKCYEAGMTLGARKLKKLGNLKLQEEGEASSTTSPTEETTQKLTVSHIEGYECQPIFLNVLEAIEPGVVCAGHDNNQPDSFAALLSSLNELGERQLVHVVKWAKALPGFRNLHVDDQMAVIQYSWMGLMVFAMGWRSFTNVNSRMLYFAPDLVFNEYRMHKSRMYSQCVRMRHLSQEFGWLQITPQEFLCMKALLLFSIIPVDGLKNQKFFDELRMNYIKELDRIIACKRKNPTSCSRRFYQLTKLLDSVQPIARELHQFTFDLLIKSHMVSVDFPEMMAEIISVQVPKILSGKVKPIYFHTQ", "description": "In vitro agonistic activity against human androgen receptor using cotransfection assay in CV-1 cells."}, "Androgen receptor [3]": {"biological_target": "T3, Androgen receptor", "remark": "listed apart in the source"}}, "data": [{"smiles": "CCCC1CCNc2cc3oc(=O)cc(C(F)(F)F)c3cc21", "note": "(stereo not given)", "values": [{"measurement": "IC50", "setting": "Glucocorticoid receptor", "result": "> 10000", "unit": "nM"}, {"measurement": "IC50", "setting": "Estrogen receptor", "result": "> 10000", "unit": "nM"}, {"measurement": "Efficacy", "setting": "[1]", "result": 89, "unit": "%"}, {"measurement": "EC50", "setting": "Androgen receptor [2]", "result": 5, "unit": "nM"}, {"measurement": "IC50", "setting": "Androgen receptor [3]", "result": "> 10", "unit": "nM"}]}, {"smiles": "O=c1cc(C(F)(F)F)c2cc3c(cc2o1)NCCC3C(F)(F)F", "note": "(stereo not given)", "values": [{"measurement": "IC50", "setting": "Glucocorticoid receptor", "result": "> 10000", "unit": "nM"}, {"measurement": "IC50", "setting": "Estrogen receptor", "result": "> 10000", "unit": "nM"}, {"measurement": "Efficacy", "setting": "[1]", "result": 68, "unit": "%"}, {"measurement": "EC50", "setting": "Androgen receptor [2]", "result": 2, "unit": "nM"}, {"measurement": "IC50", "setting": "Androgen receptor [3]", "result": "> 10", "unit": "nM"}]}, {"smiles": "CCC1Nc2cc3oc(=O)cc(C(F)(F)F)c3cc2CC1C", "note": "(stereo not given)", "values": [{"measurement": "IC50", "setting": "Glucocorticoid receptor", "result": "> 10000", "unit": "nM"}, {"measurement": "IC50", "setting": "Estrogen receptor", "result": "> 10000", "unit": "nM"}, {"measurement": "Efficacy", "setting": "[1]", "result": 88, "unit": "%"}, {"measurement": "EC50", "setting": "Androgen receptor [2]", "result": 1, "unit": "nM"}, {"measurement": "IC50", "setting": "Androgen receptor [3]", "result": "> 10", "unit": "nM"}]}, {"smiles": "CCC1CCNc2cc3oc(=O)cc(C(F)(F)F)c3cc21", "note": "(stereo not given)", "values": [{"measurement": "IC50", "setting": "Glucocorticoid receptor", "result": "> 10000", "unit": "nM"}, {"measurement": "IC50", "setting": "Estrogen receptor", "result": "> 10000", "unit": "nM"}, {"measurement": "Efficacy", "setting": "[1]", "result": 91, "unit": "%"}, {"measurement": "EC50", "setting": "Androgen receptor [2]", "result": 2, "unit": "nM"}, {"measurement": "IC50", "setting": "Androgen receptor [3]", "result": "> 10", "unit": "nM"}]}, {"smiles": "CC1CCNc2cc3oc(=O)cc(C(F)(F)F)c3cc21", "note": "(stereo not given)", "values": [{"measurement": "IC50", "setting": "Glucocorticoid receptor", "result": "> 10000", "unit": "nM"}, {"measurement": "IC50", "setting": "Estrogen receptor", "result": "> 10000", "unit": "nM"}, {"measurement": "Efficacy", "setting": "[1]", "result": 83, "unit": "%"}, {"measurement": "EC50", "setting": "Androgen receptor [2]", "result": 2, "unit": "nM"}, {"measurement": "IC50", "setting": "Androgen receptor [3]", "result": "> 10", "unit": "nM"}]}]}
